Measured values taken from patent US20230017045A1, “PYRIDINE AND PYRIMIDINE CARBOXYLATE HERBICIDES AND METHODS OF USE THEREOF” (Dow AgroSciences LLC, priority 2017, published 2023).
Where two headings read alike, the source gives them in different places.

System: test plant species
Experiment: Post-emergent herbicidal activity test (greenhouse, foliar spray, visual growth reduction)
Assay type: in vivo
Conditions: post-emergence, 336 h, 140 g ai/ha
Outline: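 Scoring used a 0 to 100 percent visual scale of growth reduction against solvent-treated controls, read 14 d after spraying. Applications went onto plants at first or second true leaf stage, 187 L/ha, with crop oil concentrate and X-77 surfactant in the carrier. Post-treatment watering was by subirrigation to avoid wash-off.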

[1] = ECHCG: barnyardgrass (Echinochloa crus-galli), 14 days after application, read-out: Visual Growth Reduction (%) 14 Days After Application, ECHCG
[2] = IPOHE: ivy-leaf morning glory (Ipomoea hederacea), 14 days after application, read-out: Visual Growth Reduction (%) 14 Days After Application, IPOHE
[3] = KCHSC: kochia (Bassia scoparia), 14 days after application, read-out: Visual Growth Reduction (%) 14 Days After Application, KCHSC
[4] = ORYSA: rice (Oryza sativa), 14 days after application, read-out: Visual Growth Reduction (%) 14 Days After Application, ORYSA
[5] = SETFA: giant foxtail (Setaria faberi), 14 days after application, read-out: Visual Growth Reduction (%) 14 Days After Application, SETFA
[6] = SORVU: grain sorghum (Sorghum vulgare), 14 days after application, read-out: Visual Growth Reduction (%) 14 Days After Application, SORVU
[7] = STEME: common chickweed (Stellaria media), 14 days after application, read-out: Visual Growth Reduction (%) 14 Days After Application, STEME
[8] = TRZAS: wheat, spring (Triticum aestivum), 14 days after application, read-out: Visual Growth Reduction (%) 14 Days After Application, TRZAS
[9] = blackgrass (Alopecurus myosuroides), 14 Days After Application, read-out: Visual Growth Reduction (%) ALOMY
[10] = canada thistle (Cirsium arvense), 14 Days After Application, read-out: Visual Growth Reduction (%) CIRAR
[11] = crabgrass (Digitaria sanguinalis), 14 Days After Application, read-out: Visual Growth Reduction (%) DIGSA
[12] = lambsquarters (Chenopodium album), 14 Days After Application, read-out: Visual Growth Reduction (%) CHEAL
[13] = redroot pigweed (Amaranthus retroflexus), 14 Days After Application, read-out: Visual Growth Reduction (%) AMARE
[14] = wild oat (Avena fatua), 14 Days After Application, read-out: Visual Growth Reduction (%) AVEFA
[15] = yellow nutsedge (Cyperus esculentus), 14 Days After Application, read-out: Visual Growth Reduction (%) CYPES
[16] = ALOMY: blackgrass (Alopecurus myosuroides), 14 days after application, read-out: Visual Growth Reduction (%) 14 Days After Application, ALOMY
[17] = AMARE: redroot pigweed (Amaranthus retroflexus), 14 days after application, read-out: Visual Growth Reduction (%) 14 Days After Application, AMARE
[18] = AVEFA: wild oat (Avena fatua), 14 days after application, read-out: Visual Growth Reduction (%) 14 Days After Application, AVEFA
[19] = CHEAL: lambsquarters (Chenopodium album), 14 days after application, read-out: Visual Growth Reduction (%) 14 Days After Application, CHEAL
[20] = CIRAR: canada thistle (Cirsium arvense), 14 days after application, read-out: Visual Growth Reduction (%) 14 Days After Application, CIRAR
[21] = CYPES: yellow nutsedge (Cyperus esculentus), 14 days after application, read-out: Visual Growth Reduction (%) 14 Days After Application, CYPES
[22] = DIGSA: crabgrass (Digitaria sanguinalis), 14 days after application, read-out: Visual Growth Reduction (%) 14 Days After Application, DIGSA

| Compound | pest or weed control at 140 g/ha [1] | pest or weed control at 140 g/ha [2] | pest or weed control at 140 g/ha [3] | pest or weed control at 140 g/ha [4] | pest or weed control at 140 g/ha [5] | pest or weed control at 140 g/ha [6] | pest or weed control at 140 g/ha [7] | pest or weed control at 140 g/ha [8] | pest or weed control at 140 g/ha [9] | pest or weed control at 140 g/ha [11] | pest or weed control at 140 g/ha [12] | pest or weed control at 140 g/ha [13] | pest or weed control at 140 g/ha [14] | pest or weed control at 140 g/ha [16] | pest or weed control at 140 g/ha [17] | pest or weed control at 140 g/ha [18] | pest or weed control at 140 g/ha [19] | pest or weed control at 140 g/ha [20] | pest or weed control at 140 g/ha [21] | pest or weed control at 140 g/ha [22] | also measured |
| --- | --- | --- | --- | --- | --- | --- | --- | --- | --- | --- | --- | --- | --- | --- | --- | --- | --- | --- | --- | --- | --- |
| COC(=O)c1nc(-c2cccc(C(F)(F)F)c2F)ccc1Cl [F289, Methyl 3-chloro-6-(2-fluoro-3-(trifluoromethyl)phenyl)picolinate] | 0 to 29% | 45 to 59% | 0 to 29% | 0 to 29% | 0 to 29% | 0 to 29% | 0 to 29% | 0 to 29% | 0 to 29% | 0 to 29% | 30 to 44% | 0 to 29% | 0 to 29% |  |  |  |  |  |  |  | pest or weed control at 140 g/ha [10]: 30 to 44%; pest or weed control at 140 g/ha [15]: 0 to 29% |
| O=C(O)c1nc(-c2ccc(C(F)(F)F)cc2F)c(F)cc1Cl [F160, 3-Chloro-5-fluoro-6-(2-fluoro-4-(trifluoromethyl)phenyl) picolinic acid] | 95 to 100% | 95 to 100% | 95 to 100% | 60 to 74% | 85 to 94% | 95 to 100% | 30 to 44% | 85 to 94% |  |  |  |  |  | 75 to 84% | 95 to 100% | 85 to 94% | 95 to 100% | 85 to 94% | 60 to 74% | 85 to 94% |  |
| COC(=O)c1nc(-c2ccc(C=O)cc2Cl)ccc1Cl [F22, methyl 3-chloro-6-(2-chloro-4-formylphenyl)picolinate] | 0 to 29% | 0 to 29% | 0 to 29% | 0 to 29% | 0 to 29% | 0 to 29% | 0 to 29% | 0 to 29% |  |  |  |  |  | 0 to 29% | 0 to 29% | 0 to 29% | 0 to 29% | 0 to 29% | 0 to 29% | 0 to 29% |  |
| COC(=O)c1nc(-c2ccc(C)cc2Cl)ccc1Cl [F60, Methyl 3-chloro-6-(2-chloro-4-methylphenyl) picolinate] | 0 to 29% | 45 to 59% | 0 to 29% |  | 0 to 29% | 0 to 29% | 0 to 29% |  |  |  |  |  |  | 0 to 29% | 60 to 74% | 0 to 29% | 0 to 29% | 0 to 29% | 0 to 29% | 0 to 29% |  |
| O=C(O)c1nc(-c2cc3c(cc2Cl)OCO3)c(F)cc1Cl [F196, 3-Chloro-6-(6-chlorobenzo[d][1,3]dioxol-5-yl)-5-fluoropicolinic acid] | 0 to 29% | 95 to 100% | 60 to 74% | 0 to 29% | 0 to 29% | 45 to 59% | 0 to 29% | 0 to 29% |  |  |  |  |  | 0 to 29% | 75 to 84% | 0 to 29% | 85 to 94% | 0 to 29% | 0 to 29% | 0 to 29% |  |
| COC(=O)c1nc(-c2cc3c(cc2OC)OC(F)(F)O3)c(F)cc1Cl [F333, Methyl 3-chloro-6-(2,2-difluoro-6-methoxybenzo[d][1,3]dioxol-5-yl)-5-fluoropicolinate] | 30 to 44% | 95 to 100% | 30 to 44% | 0 to 29% | 30 to 44% | 85 to 94% | 0 to 29% | 45 to 59% | 0 to 29% | 60 to 74% | 0 to 29% | 30 to 44% | 0 to 29% |  |  |  |  |  |  |  | pest or weed control at 140 g/ha [15]: 0 to 29% |
| COC(=O)c1nc(-c2cc3c(cc2Cl)OC(F)(F)O3)c(Cl)cc1Cl [F154, Methyl 3,5-dichloro-6-(6-chloro-2,2-difluorobenzo[d] [1,3]dioxol-5-yl)picolinate] | 0 to 29% | 95 to 100% | 0 to 29% | 0 to 29% | 45 to 59% | 60 to 74% | 0 to 29% | 0 to 29% |  |  |  |  |  | 0 to 29% | 85 to 94% | 0 to 29% | 85 to 94% | 0 to 29% | 0 to 29% | 60 to 74% |  |
| COC(=O)c1nc(-c2ccc3c(c2F)OC(F)(F)O3)c(F)cc1Cl [F229, Methyl 3-chloro-5-fluoro-6-(2,2,4-trifluorobenzo[d][1,3]dioxol-5-yl)picolinate] | 85 to 94% | 95 to 100% | 95 to 100% | 0 to 29% | 85 to 94% | 95 to 100% | 45 to 59% | 85 to 94% | 85 to 94% | 95 to 100% | 95 to 100% | 95 to 100% | 95 to 100% |  |  |  |  |  |  |  | pest or weed control at 140 g/ha [10]: 95 to 100%; pest or weed control at 140 g/ha [15]: 45 to 59% |
| COC(=O)c1nc(-c2ccc(C(F)(F)F)cc2Cl)c(F)c(Cl)c1Cl [F43, methyl 3,4-dichloro-6-(2-chloro-4-(trifluoromethyl)phenyl)-5-fluoropicolinate] | 0 to 29% | 0 to 29% | 0 to 29% | 0 to 29% | 0 to 29% | 45 to 59% | 0 to 29% | 0 to 29% |  |  |  |  |  | 0 to 29% | 0 to 29% | 0 to 29% | 0 to 29% | 0 to 29% | 0 to 29% | 0 to 29% |  |
